Results taken from publication PMC6152279, “Characterization of the Fifth Putative Acetylcholinesterase in the Wolf Spider, Pardosa pseudoannulata” (Molecules : A Journal of Synthetic Chemistry and Natural …, 2017).
“And” between values parts separate entries of the source, which are not always exact repeats. Identical values can stand only once. Like-named read-outs stand apart in the source and are kept apart here.

How the values were obtained:
PpAChE5 [1] = target: T1, PpAChE5 (Pardosa pseudoannulata, UniProt A0A1B1FIV8); test: Substrate hydrolysis kinetics of recombinant PpAChE5; assay type: biochemical; conditions: for Km / Vmax: substrate hydrolysis by PpAChE5, optimal pH
T1 sequence (A0A1B1FIV8 25-553): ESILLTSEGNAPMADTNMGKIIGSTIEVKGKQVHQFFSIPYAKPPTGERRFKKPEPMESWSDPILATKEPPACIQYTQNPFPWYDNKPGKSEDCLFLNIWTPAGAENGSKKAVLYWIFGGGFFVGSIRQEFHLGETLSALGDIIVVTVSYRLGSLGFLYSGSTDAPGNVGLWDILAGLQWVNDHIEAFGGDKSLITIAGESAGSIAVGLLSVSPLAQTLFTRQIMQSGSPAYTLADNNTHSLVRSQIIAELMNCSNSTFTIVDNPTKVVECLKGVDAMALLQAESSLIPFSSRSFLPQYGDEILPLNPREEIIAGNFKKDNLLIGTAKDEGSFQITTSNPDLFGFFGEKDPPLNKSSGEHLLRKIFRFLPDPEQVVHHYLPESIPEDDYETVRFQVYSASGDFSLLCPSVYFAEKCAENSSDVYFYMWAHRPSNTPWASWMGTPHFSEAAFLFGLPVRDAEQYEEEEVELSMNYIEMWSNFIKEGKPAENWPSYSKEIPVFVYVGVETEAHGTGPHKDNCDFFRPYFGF
Excerpt: (§1) As described previously, complete coding sequence of the new putative ace gene was subcloned into the expression vector pFastBac-HTa with its specific primers (Table 5) and verified by nucleotide sequencing. The vector with an enhanced green fluorescent protein (eGFP, GenBank accession number: AAK15492), which constructed previously in our laboratory was as a control. Using baculovirus-insect expression system, Sf9 cells which infected by the recombinant Bacmid DNAs were used for protein expression, and the baculovirus culture supernatants were collected as the crude enzyme. The culture supernatants of non-infectious Sf9 cells were used as the negative control.
(§2) The methods for enzyme biochemical properties assaying were performed as described previously. Fifty microliters of enzyme, 100 μL of DTNB (75 μM) and 100 μL of substrate at different concentrations were mixed in a 96-well microplate for the enzyme activities detecting. Using Molecular Devices Thermomax Kinetic Microplate Reader, the mixed solutions were monitored for 20 min in 30 s intervals at 405 nm and three replications were used to calculate the mean level of enzyme activity. Different pH of the mixed-reaction solutions were employed for detecting enzyme optimal pH condition. Under the optimal pH of enzyme, the Michaelis–Menten constant value (KM) and maximal reaction velocity (Vmax) for each substrate were determined by fitting the velocity (ν) and substrate concentration ([S], 20–2000 μM) data to ν = Vmax [S]/(KM + [S]) using Prism 5.0 (GraphPad Software, La Jolla, CA, USA). Protein concentration was measured by the Protein-dye Binding Method according to the Micro BCA Protein Assay Kit (ThermoFisher, Waltham, MA, USA) instruction.

PpAChE1 [2] = conditions: cited from earlier work; for Km / Vmax: substrate hydrolysis by PpAChE1
PpAChE2 [3] = conditions: cited from earlier work; for Km / Vmax: substrate hydrolysis by PpAChE2
PpAChE3 [4] = conditions: cited from earlier work; for Km / Vmax: substrate hydrolysis by PpAChE3
PpAChE4 [5] = conditions: cited from earlier work; for Km / Vmax: substrate hydrolysis by PpAChE4
PpAChE5 [6] = target: T1, PpAChE5; test: Inhibition of enzyme activity (IC50) of PpAChE5; assay type: biochemical; conditions: for IC50: 10 min preincubation with inhibitor
Excerpt: as §1, §2
To determine IC50 values of enzyme to different inhibitors, the enzyme was first incubated with an inhibitor at various concentrations ([I]) for 10 min. The residual enzyme activity (in reference to a mixture of the enzyme and buffer) was determined as above and plotted against −log10[I]. The IC50 value for each inhibitor was determined from nonlinear regression analysis of activity and −log10[I] data using Prism 5.0 (GraphPad Software, La Jolla, CA, USA). The bimolecular rate constant (ki) was determined by enzyme reaction premixed with various concentrations of an inhibitor and was fitted using Prism 5.0.

PpAChE1 [7] = conditions: cited from earlier work
PpAChE2 [8] = conditions: cited from earlier work
PpAChE3 [9] = conditions: cited from earlier work
PpAChE4 [10] = conditions: cited from earlier work
PpAChE5 [11] = target: T1, PpAChE5; test: Inhibition kinetics (bimolecular rate constant ki) of PpAChE5; assay type: biochemical; conditions: ATC hydrolysis
Excerpt: as §1
The methods for enzyme biochemical properties assaying were performed as described previously. Fifty microliters of enzyme, 100 μL of DTNB (75 μM) and 100 μL of substrate at different concentrations were mixed in a 96-well microplate for the enzyme activities detecting. Using Molecular Devices Thermomax Kinetic Microplate Reader, the mixed solutions were monitored for 20 min in 30 s intervals at 405 nm and three replications were used to calculate the mean level of enzyme activity. […] Protein concentration was measured by the Protein-dye Binding Method according to the Micro BCA Protein Assay Kit (ThermoFisher, Waltham, MA, USA) instruction. […]

| Structure (SMILES) | Km (PpAChE5 [1]) [µM] | Vmax (PpAChE5 [1]) | Km (PpAChE1 [2]) [µM] | Vmax (PpAChE1 [2]) | Km (PpAChE2 [3]) [µM] | Vmax (PpAChE2 [3]) | Km (PpAChE3 [4]) [µM] | Vmax (PpAChE3 [4]) | Km (PpAChE4 [5]) [µM] | Vmax (PpAChE4 [5]) | inhibition on ATC hydrolysis activity of PpAChE5 (PpAChE5 [6]; in words) | IC50 (PpAChE5 [6]; PpAChE5, on ATC hydrolysis) [µM] | IC50 (PpAChE1 [7]; PpAChE1, on ATC hydrolysis) [µM] | IC50 (PpAChE2 [8]; PpAChE2, on ATC hydrolysis) [µM] | IC50 (PpAChE3 [9]; PpAChE3, on ATC hydrolysis) [µM] | IC50 (PpAChE4 [10]; PpAChE4, on ATC hydrolysis) [µM] | other results |
| --- | --- | --- | --- | --- | --- | --- | --- | --- | --- | --- | --- | --- | --- | --- | --- | --- | --- |
| CC(=O)SCC[N+](C)(C)C.[I-] [ATC, acetylthiocholine iodide] | 1300 ± 163 | 428.4 ± 29.2 a nmol/mg·min | 537 ± 63.4 | 112.6 ± 8.8 c nmol/mg·min | 4410 ± 534 | 253.9 ± 20.4 b nmol/mg·min | 42.9 ± 5.8 | 124.7 ± 11.5 c nmol/mg·min | 61.6 ± 7.5 | 86.6 ± 9.7 d nmol/mg·min | – | – | – | – | – | – | Vmax Ratio ATC vs. BTC (PpAChE5 [1]; PpAChE5): 4.6 and 4.68; Vmax Ratio ATC vs. PTC (PpAChE5 [1]; PpAChE5): 7.2 and 7.26; Vmax Ratio ATC vs. BTC (PpAChE1 [2]; PpAChE1): 1.18; Vmax Ratio ATC vs. PTC (PpAChE1 [2]; PpAChE1): 1.48; Vmax Ratio ATC vs. BTC (PpAChE2 [3]; PpAChE2): 1.09; Vmax Ratio ATC vs. PTC (PpAChE2 [3]; PpAChE2): 1.62; Vmax Ratio ATC vs. BTC (PpAChE3 [4]; PpAChE3): 3.09; Vmax Ratio ATC vs. PTC (PpAChE3 [4]; PpAChE3): 1.17; Vmax Ratio ATC vs. BTC (PpAChE4 [5]; PpAChE4): 0.82; Vmax Ratio ATC vs. PTC (PpAChE4 [5]; PpAChE4): 1.74 |
| CCCC(=O)SCC[N+](C)(C)C.[I-] [BTC, butyrylthiocholine iodide] | 1530 ± 118 | 91.6 ± 11.3 b nmol/mg·min | 859 ± 103 | 95.4 ± 12.8 b nmol/mg·min | 4540 ± 326 | 233.9 ± 16.5 a nmol/mg·min | 199 ± 22.3 | 40.3 ± 5.6 c nmol/mg·min | 269 ± 35.5 | 105.5 ± 8.9 b nmol/mg·min | – | – | – | – | – | – | Vmax Ratio BTC vs. BTC (PpAChE5 [1]; PpAChE5): 1.55; Vmax Ratio BTC vs. BTC (PpAChE1 [2]; PpAChE1): 1.25; Vmax Ratio BTC vs. BTC (PpAChE2 [3]; PpAChE2): 1.49; Vmax Ratio BTC vs. BTC (PpAChE4 [5]; PpAChE4): 2.12 |
| C=CC[N+](C)(C)c1ccc(CCC(=O)CCc2ccc([N+](C)(C)CC=C)cc2)cc1.[Br-].[Br-] [BW284C51, 1,5-bis(4-allyldimethylammoniumphenyl)-pentan-3-one dibromide] | – | – | – | – | – | – | – | – | – | – | strong inhibition | 0.471 ± 0.0693 | 0.0512 ± 0.0076 | 2.54 ± 0.214 | 0.0368 ± 0.0053 | 0.0736 ± 0.0105 | – |
| CNC(=O)Oc1ccc2c(c1)[C@]1(C)CCN(C)[C@@H]1N2C [Eserine, eserine] | – | – | – | – | – | – | – | – | – | – | strong inhibition | 1.16 ± 0.157 | 0.117 ± 0.0206 | 1.86 ± 0.251 | 0.0652 ± 0.018 | 0.245 ± 0.0394 | ki (PpAChE5 [11]): 6.24 ± 1.72 b ×10^−7M^−1min^−1 |
| CC(C)NP(=O)(NC(C)C)OP(=O)(NC(C)C)NC(C)C [ISO-OMPA, tetraisopropyl pyrophosphoramide] | – | – | – | – | – | – | – | – | – | – | – | – | – | – | – | – | inhibition against BTC hydrolysis (PpAChE5 [6]; PpAChE5, BTC hydrolysis, in words): very weak inhibition; IC50 (PpAChE5 [6]; PpAChE5, on BTC hydrolysis): > 100 µM; IC50 (PpAChE1 [7]; PpAChE1, on BTC hydrolysis): > 100 µM; IC50 (PpAChE2 [8]; PpAChE2, on BTC hydrolysis): 21.7 ± 3.26 µM; IC50 (PpAChE3 [9]; PpAChE3, on BTC hydrolysis): > 100 µM; IC50 (PpAChE4 [10]; PpAChE4, on BTC hydrolysis): > 100 µM |
| CCC(=O)SCC[N+](C)(C)C.[I-] [PTC, propionylthiocholine iodide] | 1550 ± 129 | 59.0 ± 7.2 cd nmol/mg·min | 1150 ± 134 | 76.2 ± 9.2 c nmol/mg·min | 4500 ± 319 | 156.8 ± 21.3 a nmol/mg·min | 504 ± 86.8 | 106.2 ± 15.1 b nmol/mg·min | 279 ± 35.2 | 49.7 ± 8.4 d nmol/mg·min | – | – | – | – | – | – | – |
